Experimental findings from patent US20240398805A1, “QUINAZOLINE DERIVED COMPOUNDS AS EGFR INHIBITORS AND THEIR USES THEREOF” (ACCUTAR BIOTECHNOLOGY INC., priority 2021, published 2024) are described below.

Holding throughout (type): cell-based
Test [1] relates to HCC827 cells. Put plainly: Cell growth inhibition (CellTiter-Glo, 3 days) in HCC827. Particulars: Homo sapiens, 72 h, 3 days after administration. In a few lines:
(§1)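 HCC827 cells in RPMI/10% FBS and A431 cells in DMEM/10% FBS were seeded at 5000 cells/well and left overnight. Compound was then added over a concentration range for 3 days of incubation, and viability was read by CellTiter-Glo luminescence.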

The subject of test [2] is HCC827-ASV cells (human EGFR exon 20 insertion mutant A769_D770insASV). Description: Cell growth inhibition (CellTiter-Glo, 3 days) in HCC827-ASV. To be noted: 72 h, 3 days after administration. In a few lines: (§2)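 Growth inhibition used a CellTiter-Glo luminescence read-out after 3 days of compound exposure at various concentrations. Cells were plated the day before at 5000/well in RPMI plus 10% FBS. The lines are HCC827 transduced by lentivirus with codon-optimized EGFR ASV or ERBB2 YVMA exon 20 insertions.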
A general note: In ATP-based viability assays light output follows the ATP content of the culture.

The subject of test [3] is HCC827-SVD cells (human EGFR exon 20 insertion mutant D770_N771 insSVD). Description: Cell growth inhibition (CellTiter-Glo, 3 days) in HCC827-SVD. To be noted: 72 h, 3 days after administration. In a few lines:
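HCC827 cells carrying lentiviral codon-optimized EGFR D770_N771 insSVD, with endogenous EGFR knocked out by CRISPR (single clone), seeded at 5000 cells/well in RPMI with 10% FBS. Viability read by CellTiter-Glo luminescence.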

Test [4] deals with HCC827-YVMA cells (human ERBB2 exon20 insertion mutant A775_G776ins YVMA). Description: Cell growth inhibition (CellTiter-Glo, 3 days) in HCC827-YVMA. To be noted: 72 h, 3 days after administration. In a few lines: as §2
Test [5] deals with A431 cells. Put plainly: Cell growth inhibition (CellTiter-Glo, 3 days) in A431. To be noted: Homo sapiens, A-431, 72 h, 3 days after administration. In a few lines:
as §1

Take `C=CC(=O)N1CCC(Nc2cc3c(Nc4ccc(Oc5ccnc(N6CC[C@H](F)C6)c5)cc4F)ncnc3cc2OC)CC1` [Example 196, (S)-1-(4-((4-((2-fluoro-4-((2-(3-fluoropyrrolidin-1-yl)pyridin-4-yl)oxy)phenyl)amino)-7-methoxyquinazolin-6-yl)amino)piperidin-1-yl)prop-2-en-1-one]: the concentration for 50% growth inhibition (GI50) (commonly the concentration that inhibits growth by half) in test [1] is 0.06 to 0.1 µM; in test [2], less than 0.03 µM; in test [3], less than 0.03 µM; in test [4], less than 0.03 µM; in test [5] it was 0.1 to 0.3 µM.

As for `C=CC(=O)N1CCC(Nc2cc3c(Nc4ccc(Oc5ccnc(N6CC[C@@H](C)C6)c5)cc4F)ncnc3cc2OC)CC1` [Example 197, (R)-1-(4-((4-((2-fluoro-4-((2-(3-methylpyrrolidin-1-yl)pyridin-4-yl)oxy)phenyl)amino)-7-methoxyquinazolin-6-yl)amino)piperidin-1-yl)prop-2-en-1-one], the 50% growth inhibitory concentration (GI50) in test [1] was 0.06 to 0.1 µM; in test [2] it was less than 0.03 µM; in test [3], less than 0.03 µM; in test [4], less than 0.03 µM; in test [5], 0.3 to 0.6 µM.

As for `C=CC(=O)N1CCC(Nc2cc3c(Nc4ccc(Oc5ccnc(N6CC[C@H](C)C6)c5)cc4F)ncnc3cc2OC)CC1` [Example 198, (S)-1-(4-((4-((2-fluoro-4-((2-(3-methylpyrrolidin-1-yl)pyridin-4-yl)oxy)phenyl)amino)-7-methoxyquinazolin-6-yl)amino)piperidin-1-yl)prop-2-en-1-one], the GI50 in test [1] is 0.03 to 0.06 µM; in test [2], less than 0.03 µM; in test [3], less than 0.03 µM; in test [4], less than 0.03 µM; in test [5], 0.6 to 1 µM.

Take `C=CC(=O)N1CCC(Nc2cc3c(Nc4ccc(Oc5ccnc(N6CC7CC7C6)c5)cc4F)ncnc3cc2OC)CC1` (stereo not shown) [Example 199, 1-(4-((4-((4-((2-(3-azabicyclo[3.1.0]hexan-3-yl)pyridin-4-yl)oxy)-2-fluorophenyl)amino)-7-methoxyquinazolin-6-yl)amino)piperidin-1-yl)prop-2-en-1-one]: the GI50 in test [1] was 0.1 to 0.3 µM; in test [2], less than 0.03 µM; in test [3], less than 0.03 µM; in test [4], less than 0.03 µM; in test [5], 0.06 to 0.1 µM.

Regarding `C=CC(=O)N1CCC(Nc2cc3c(Nc4ccc(Oc5ccnc(N6CCC(C)(C#N)CC6)c5)cc4F)ncnc3cc2OC)CC1` [Example 200, 1-(4-(4-((6-((1-acryloylpiperidin-4-yl)amino)-7-methoxyquinazolin-4-yl)amino)-3-fluorophenoxy)pyridin-2-yl)-4-methylpiperidine-4-carbonitrile], the GI50 in test [1] was 0.06 to 0.1 µM; in test [2], 0.03 to 0.06 µM; in test [3] it was 0.03 to 0.06 µM; in test [4] it was 0.06 to 0.1 µM; in test [5], not below 1 µM.

`C=CC(=O)N1CCC(Nc2cc3c(Nc4ccc(Oc5ccnc(N6CC(F)(F)C6)c5)cc4F)ncnc3cc2OC)CC1` [Example 201, 1-(4-((4-((4-((2-(3,3-difluoroazetidin-1-yl)pyridin-4-yl)oxy)-2-fluorophenyl)amino)-7-methoxyquinazolin-6-yl)amino)piperidin-1-yl)prop-2-en-1-one]: the GI50 in test [1] was 0.06 to 0.1 µM; in test [2], less than 0.03 µM; in test [3], less than 0.03 µM; in test [4] it was less than 0.03 µM; in test [5] it was 0.6 to 1 µM.

In the case of `C=CC(=O)N1CCC(Nc2cc3c(Nc4ccc(Oc5ccnc(N6CC(C)(C)C6)c5)cc4F)ncnc3cc2OC)CC1` [Example 202, 1-(4-((4-((4-((2-(3,3-dimethylazetidin-1-yl)pyridin-4-yl)oxy)-2-fluorophenyl)amino)-7-methoxyquinazolin-6-yl)amino)piperidin-1-yl)prop-2-en-1-one], the GI50 is less than 0.03 µM in test [1]; less than 0.03 µM in test [2]; less than 0.03 µM in test [3]; less than 0.03 µM in test [4]; 0.1 to 0.3 µM in test [5].

Consider `C=CC(=O)N1CCC(Nc2cc3c(Nc4ccc(Oc5ccnc(N6CC(C)(O)C6)c5)cc4F)ncnc3cc2OC)CC1` [Example 203, 1-(4-((4-((2-fluoro-4-((2-(3-hydroxy-3-methylazetidin-1-yl)pyridin-4-yl)oxy)phenyl)amino)-7-methoxyquinazolin-6-yl)amino)piperidin-1-yl)prop-2-en-1-one], for which the GI50 was 0.1 to 0.3 µM in test [1]; less than 0.03 µM in test [2]; less than 0.03 µM in test [3]; less than 0.03 µM in test [4]; 0.1 to 0.3 µM in test [5].

On to `C=CC(=O)N1CCC(Nc2cc3c(Nc4ccc(Oc5ccnc(N6CC7(CCOCC7)C6)c5)cc4F)ncnc3cc2OC)CC1` [Example 204, 1-(4-((4-((4-((2-(7-oxa-2-azaspiro[3.5]nonan-2-yl)pyridin-4-yl)oxy)-2-fluorophenyl)amino)-7-methoxyquinazolin-6-yl)amino)piperidin-1-yl)prop-2-en-1-one], for which the GI50 in test [1] was 0.06 to 0.1 µM; in test [2], less than 0.03 µM; in test [3] it was less than 0.03 µM; in test [4], less than 0.03 µM; in test [5] it was 0.1 to 0.3 µM.

`C=CC(=O)N1CCC(Nc2cc3c(Nc4ccc(Oc5ccnc(N6CC(C)(C#N)C6)c5)cc4F)ncnc3cc2OC)CC1` [Example 205, 1-(4-(4-((6-((1-acryloylpiperidin-4-yl)amino)-7-methoxyquinazolin-4-yl)amino)-3-fluorophenoxy)pyridin-2-yl)-3-methylazetidine-3-carbonitrile]: the GI50 was less than 0.03 µM in test [1]; less than 0.03 µM in test [2]; less than 0.03 µM in test [3]; less than 0.03 µM in test [4]; 0.1 to 0.3 µM in test [5].

As to `C=CC(=O)N1CCC(Nc2cc3c(Nc4ccc(Oc5ccnc(N6CC(O)(C(F)(F)F)C6)c5)cc4F)ncnc3cc2OC)CC1` [Example 206, 1-(4-((4-((2-fluoro-4-((2-(3-hydroxy-3-(trifluoromethyl)azetidin-1-yl)pyridin-4-yl)oxy)phenyl)amino)-7-methoxyquinazolin-6-yl)amino)piperidin-1-yl)prop-2-en-1-one], the GI50 in test [1] was 0.06 to 0.1 µM; in test [2], less than 0.03 µM; in test [3] it was less than 0.03 µM; in test [4], less than 0.03 µM; in test [5], 0.1 to 0.3 µM.

With `C=CC(=O)N1CCC(Nc2cc3c(Nc4ccc(Oc5ccnc(N6CC(C)(OC)C6)c5)cc4F)ncnc3cc2OC)CC1` [Example 207, 1-(4-((4-((2-fluoro-4-((2-(3-methoxy-3-methylazetidin-1-yl)pyridin-4-yl)oxy)phenyl)amino)-7-methoxyquinazolin-6-yl)amino)piperidin-1-yl)prop-2-en-1-one], the GI50 is 0.03 to 0.06 µM in test [1]; less than 0.03 µM in test [2]; less than 0.03 µM in test [3]; less than 0.03 µM in test [4]; 0.1 to 0.3 µM in test [5].

In the case of `C=CC(=O)N1CCC(Nc2cc3c(Nc4ccc(Oc5ccnc(N6CC(CC#N)C6)c5)cc4F)ncnc3cc2OC)CC1` [Example 208, 2-(1-(4-(4-((6-((1-acryloylpiperidin-4-yl)amino)-7-methoxyquinazolin-4-yl)amino)-3-fluorophenoxy)pyridin-2-yl)azetidin-3-yl)acetonitrile], the GI50 was 0.1 to 0.3 µM in test [1]; less than 0.03 µM in test [2]; less than 0.03 µM in test [3]; 0.03 to 0.06 µM in test [4]; 0.6 to 1 µM in test [5].

With `C=CC(=O)N1CCC(Nc2cc3c(Nc4ccc(Oc5ccnc(CN6CCCC6)c5)cc4F)ncnc3cc2OC)CC1` [Example 209, 1-(4-((4-((2-fluoro-4-((2-(pyrrolidin-1-ylmethyl)pyridin-4-yl)oxy)phenyl)amino)-7-methoxyquinazolin-6-yl)amino)piperidin-1-yl)prop-2-en-1-one], the GI50 fell in the range of 0.1 to 0.3 µM in test [1]; 0.1 to 0.3 µM in test [2]; 0.1 to 0.3 µM in test [3]; 0.06 to 0.1 µM in test [4]; 0.6 to 1 µM in test [5].

In the case of `C=CC(=O)N1CCC(Nc2cc3c(Nc4ccc(Oc5ccnc(C(=O)OC)c5)cc4F)ncnc3cc2OC)CC1` [Example 211, methyl 4-(4-((6-((1-acryloylpiperidin-4-yl)amino)-7-methoxyquinazolin-4-yl)amino)-3-fluorophenoxy) picolinate], the GI50 in test [1] was not below 1 µM; in test [2], not below 1 µM; in test [3] it was not below 1 µM; in test [4] it was 0.6 to 1 µM; in test [5], not below 1 µM.

Take `C=CC(=O)N1CCC(Nc2cc3c(Nc4ccc(Oc5ccnc(C(=O)O)c5)cc4F)ncnc3cc2OC)CC1` [Example 212, 4-(4-((6-((1-acryloylpiperidin-4-yl)amino)-7-methoxyquinazolin-4-yl)amino)-3-fluorophenoxy) picolinic acid]: the GI50 in test [1], in test [2], in test [3], in test [4] and in test [5] was not below 1 µM in each case.

On to `C=CC(=O)N1CCC(Nc2cc3c(Nc4ccc(Oc5ccnc(C6=CCN(C)CC6)c5)cc4F)ncnc3cc2OC)CC1` [Example 213, 1-(4-((4-((2-fluoro-4-((1′-methyl-1′,2′,3′,6′-tetrahydro-[2,4′-bipyridin]-4-yl)oxy)phenyl)amino)-7-methoxyquinazolin-6-yl)amino)piperidin-1-yl)prop-2-en-1-one], for which the GI50 in test [1] is 0.3 to 0.6 µM; in test [2] it was 0.1 to 0.3 µM; in test [3], 0.3 to 0.6 µM; in test [4] it was 0.3 to 0.6 µM; in test [5], not below 1 µM.
